Strand notation (5' to 3'): a small letter for the sugar, then the base; units joined by * are phosphorothioate-linked, units joined directly phosphodiester-linked; [ ] holds rarer units or linkages, { } end groups; capitals alone tell only the bases. k = constrained ethyl (cEt); [5mC] = 5-methylcytosine; d = 2'-deoxy (DNA)

This is an account of results in patent US11214803B2, “Modulators of YAP1 expression” (Ionis Pharmaceuticals, Inc., priority 2019, dated 2022).

The test system of one series is Yap1 mRNA. Briefly: Antisense inhibition of human Yap1 in A-431 cells by cEt gapmers, single dose (Example 2, RTS4814). It is filed as cell-based. The conditions noted are these: A-431 cells, 5,000 cells per well, free uptake, 2,000 nM modified oligonucleotide, approx. 48 hours, RTS4814, normalized to RIBOGREEN; Table 4; asterisk (*) = targets amplicon region of primer probe set. The procedure, abridged: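 Free uptake, 2,000 nM, ~48 h, A-431 at 5,000 cells/well. Readout: RT-qPCR (RTS4814), RIBOGREEN-normalized, % UTC. 16-mer 3-10-3 cEt gapmers, full PS backbone, all C as 5-methylcytosine.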
Turning to “716523 (antisense k[5mC]*kA*kA*dA*dT*dT*dA*dA*dA*dG*dT*dT*dG*kA*kG*kG) [Compound 716523]”, the “YAP1 (% UTC)” value is reported as 37 % UTC.
As to “716439 (kG*kT*kA*dT*dT*dT*dA*dA*dT*dA*dT*d[5mC]*dA*kG*kA*kT; antisense) [Compound 716439]”, the “YAP1 (% UTC)” value was determined as 77 % UTC.
Consider “716508 (antisense k[5mC]*kT*kA*dG*dG*dT*dA*dG*dA*dA*dT*dT*dT*k[5mC]*kA*kT) [Compound 716508]”, for which the “YAP1 (% UTC)” value came to 67 % UTC.

Staying with this series, now noted: Table 5; A-431 cells, 5,000 cells per well, free uptake, 2,000 nM modified oligonucleotide, approx. 48 hours; RTS4814; normalized to RIBOGREEN; Yap1 mRNA relative to untreated control cells.
As to “716398 (kT*kA*kT*dT*d[5mC]*d[5mC]*dG*d[5mC]*dA*dT*dT*dG*d[5mC]*k[5mC]*kT*kG; antisense) [Compound 716398]”, the “YAP1 (% UTC)” value is reported as 70 % UTC.
As to “716506 (antisense kT*k[5mC]*kT*dG*d[5mC]*dA*dG*dT*dG*dG*d[5mC]*d[5mC]*dA*kT*kT*kT) [Compound 716506]”, the “YAP1 (% UTC)” value was found to be 62 % UTC.
Same read-out and setting: the figure for “716455 (kG*kT*kT*dA*dT*dG*dT*dT*dT*dG*dG*dG*dT*kG*kT*kG; antisense) [Compound 716455]” is 17 % UTC; for “716395 (kG*k[5mC]*k[5mC]*dG*d[5mC]*dA*dG*d[5mC]*d[5mC]*dT*d[5mC]*dT*d[5mC]*k[5mC]*kT*kT; antisense) [Compound 716395]” it is 92 % UTC.

The series is the same for the next values; noted with them: Table 6; A-431 cells, 5,000 cells per well, free uptake, 2,000 nM modified oligonucleotide, approx. 48 hours; RTS4814; normalized to RIBOGREEN; Yap1 mRNA relative to untreated control cells.
As to “716459 (k[5mC]*kG*k[5mC]*dT*dA*d[5mC]*d[5mC]*dA*dT*dT*dT*dT*dA*kA*kA*kA; antisense) [Compound 716459]”, the “YAP1 (% UTC)” value is listed as 121 % UTC.
Same read-out and setting: the figure for “716525 (antisense k[5mC]*kA*k[5mC]*dA*dG*dT*dA*d[5mC]*dT*dG*d[5mC]*dT*dA*k[5mC]*kA*kA) [Compound 716525]” is 64 % UTC.
Still for that read-out and setting: then “716387 (kT*kA*kT*dG*dG*dT*dT*dT*dA*dT*dA*dT*dA*kG*kT*kA; antisense) [Compound 716387]”, with 33 % UTC.
As for “716396 (k[5mC]*kA*kG*dT*dT*d[5mC]*dT*dT*dG*d[5mC]*dT*dG*dT*kT*kT*k[5mC]; antisense) [Compound 716396]”, the “YAP1 (% UTC)” value is given as 123 % UTC.
On the same count and under the same terms, the figure for “716408 (k[5mC]*kA*k[5mC]*dT*dG*dT*dA*dG*d[5mC]*dT*dG*d[5mC]*dT*k[5mC]*kA*kT; antisense) [Compound 716408]” is 54 % UTC; for “716477 (kG*kT*kG*dT*dT*d[5mC]*dA*dT*dT*dA*d[5mC]*dA*dA*kA*kT*kG; antisense) [Compound 716477]” it is 42 % UTC.

The same series, now with this note: Table 18; A-431 cells, 5,000 cells per well, free uptake, 2,000 nM modified oligonucleotide, approx. 48 hours; RTS4814; normalized to RIBOGREEN; Yap1 mRNA as percent of untreated control.
With “1074116 (antisense kG*kA*kG*dA*dA*d[5mC]*dT*dT*dT*dT*dT*d[5mC]*d[5mC]*k[5mC]*kT*k[5mC]) [Compound 1074116]”, the “YAP1 (% UTC)” value was determined as 112 % UTC.
Turning to “1075652 (kG*kT*kA*dT*dA*dT*dT*dA*d[5mC]*dA*dA*dT*d[5mC]*k[5mC]*k[5mC]*kA; antisense) [Compound 1075652]”, the “YAP1 (% UTC)” value is on record as 40 % UTC.
The same measure, in the same setting: then “1074564 (antisense k[5mC]*kT*kG*dA*dA*dT*dT*d[5mC]*d[5mC]*dA*dA*dT*d[5mC]*kG*kA*kG) [Compound 1074564]”, with 4 % UTC.
The same measure, in the same setting: then “1075332 (kA*kG*k[5mC]*dG*dG*dG*dT*dT*dT*dA*dG*dA*dA*kT*kG*k[5mC]; antisense) [Compound 1075332]”, with 66 % UTC.

The series is the same for the next values; noted with them: Table 19; A-431 cells, 5,000 cells per well, free uptake, 2,000 nM modified oligonucleotide, approx. 48 hours; RTS4814; normalized to RIBOGREEN; Yap1 mRNA as percent of untreated control.
“1074757 (kA*kG*kT*dT*dA*dA*dG*d[5mC]*dA*d[5mC]*dT*dT*dT*kT*kA*k[5mC]; antisense) [Compound 1074757]”: the “YAP1 (% UTC)” value turned out to be 21 % UTC.
On the same count and under the same terms, the figure for “1075429 (antisense k[5mC]*kT*kT*dT*dA*d[5mC]*dT*dA*dT*d[5mC]*dT*dG*dG*kG*kT*k[5mC]) [Compound 1075429]” is 23 % UTC.

Staying with this series, now noted: Table 20; Yap1 mRNA, percent of untreated control; 3-10-3 cEt gapmers targeting SEQ ID NO.: 1 and 2.
For the substance “1076294 (kT*kA*kT*dA*dT*dT*dA*dG*dT*dG*d[5mC]*d[5mC]*d[5mC]*k[5mC]*k[5mC]*kT; antisense) [Compound 1076294]”, the “YAP1 (% UTC)” value was determined as 6 % UTC.
As for “1074662 (antisense kG*kG*kT*dA*dG*dA*dA*dT*dT*dT*d[5mC]*dA*dT*kT*kA*k[5mC]) [Compound 1074662]”, the “YAP1 (% UTC)” value is on record as 30 % UTC.
On the same count and under the same terms, then “1074854 (antisense kA*k[5mC]*kA*dA*dT*dT*dG*dT*dT*dA*dT*dG*dA*kT*kA*kG) [Compound 1074854]”, with 23 % UTC.

Staying with this series, now noted: Table 21; Yap1 mRNA, percent of untreated control; 3-10-3 cEt gapmers targeting SEQ ID NO.: 1 and 2.
Turning to “1074151 (antisense kG*kG*kG*d[5mC]*d[5mC]*dG*dA*dG*dG*dT*dG*dG*dA*kG*kA*kA) [Compound 1074151]”, the “YAP1 (% UTC)” value is listed as 81 % UTC.
The same measure, in the same setting: then “1075815 (kG*kT*kA*dT*dA*dA*dA*dG*d[5mC]*dA*dG*dG*dG*k[5mC]*kA*kT; antisense) [Compound 1075815]”, with 36 % UTC.

The same series, now with this note: Table 22; Yap1 mRNA as percent of untreated control; 3-10-3 cEt gapmers; single dose.
In the case of “1074952 (antisense kG*kT*kT*dT*dT*dT*dG*dT*d[5mC]*dA*dT*d[5mC]*dA*kG*kG*kT) [Compound 1074952]”, the “YAP1 (% UTC)” value is given as 42 % UTC.

Staying with this series, now noted: Table 23; Yap1 mRNA as percent of untreated control; 3-10-3 cEt gapmers; single dose.
With “1076457 (antisense kG*kA*kA*d[5mC]*dT*dA*dT*dA*dA*dT*d[5mC]*dT*dT*kA*kT*kA) [Compound 1076457]”, the “YAP1 (% UTC)” value was 74 % UTC.
The same measure, in the same setting: then “1076073 (k[5mC]*kT*kT*dT*dA*dA*dG*dG*dT*d[5mC]*dT*dA*dG*kT*kT*kA; antisense) [Compound 1076073]”, with 47 % UTC; and “1075337 (kG*k[5mC]*kT*dT*dA*dT*dA*dT*d[5mC]*d[5mC]*dT*dG*dT*kA*kA*k[5mC]; antisense) [Compound 1075337]”, with 48 % UTC.
Still for that read-out and setting: the figure for “1074121 (antisense kT*kG*k[5mC]*dG*dA*dG*dG*d[5mC]*dA*d[5mC]*dT*d[5mC]*dG*kG*kA*k[5mC]) [Compound 1074121]” is 87 % UTC; for “1074697 (antisense kA*kT*k[5mC]*dA*dA*dG*dG*dT*d[5mC]*d[5mC]*d[5mC]*d[5mC]*d[5mC]*kT*kA*kA) [Compound 1074697]” it is 44 % UTC.
On to “1074537 (antisense k[5mC]*kA*kG*dT*dA*dA*dT*dA*dG*d[5mC]*dT*d[5mC]*dT*kT*kT*k[5mC]) [Compound 1074537]”, for which the “YAP1 (% UTC)” value is given as 3 % UTC.
The same measure, in the same setting: the figure for “1074281 (antisense kG*kA*kG*dG*dG*dT*d[5mC]*dA*dA*dG*d[5mC]*d[5mC]*dT*kT*kG*kG) [Compound 1074281]” is 91 % UTC.

The same series, now with this note: Table 24; Yap1 mRNA as percent of untreated control; 3-10-3 cEt gapmers targeting SEQ ID NO.: 1, and 2.
“1076042 (k[5mC]*kT*kT*dA*dA*dG*d[5mC]*dA*dA*dG*dA*dG*dT*k[5mC]*k[5mC]*kA; antisense) [Compound 1076042]”: the “YAP1 (% UTC)” value was 35 % UTC.
On the same count and under the same terms, then “1074634 (antisense kG*k[5mC]*kT*dG*dA*dG*dG*d[5mC]*dT*dT*dT*dT*d[5mC]*kA*kT*kA) [Compound 1074634]”, with 55 % UTC.

The same series, now with this note: Table 25; Yap1 mRNA as percent of untreated control; 3-10-3 cEt gapmers targeting SEQ ID NO.: 1, and 2.
Take “1075499 (kG*k[5mC]*kT*dA*dA*dA*dA*dA*dA*dT*dG*dA*dG*kT*kA*kG; antisense) [Compound 1075499]”: the “YAP1 (% UTC)” value was determined as 99 % UTC.
Still for that read-out and setting: then “1074987 (antisense kG*k[5mC]*k[5mC]*dG*d[5mC]*dG*dG*d[5mC]*dT*d[5mC]*d[5mC]*d[5mC]*dG*kA*kG*k[5mC]) [Compound 1074987]”, with 94 % UTC.
Same read-out and setting: then “1075755 (kA*k[5mC]*kT*dT*dA*dA*dA*dT*dG*dG*d[5mC]*dA*d[5mC]*kA*kG*kT; antisense) [Compound 1075755]”, with 73 % UTC; and “1074795 (k[5mC]*k[5mC]*kA*dA*dA*dT*d[5mC]*dA*dA*dT*dG*dT*dG*k[5mC]*kT*k[5mC]; antisense) [Compound 1074795]”, with 4 % UTC.

The same series, now with this note: Table 33; Yap1 mRNA, percent of untreated control; 3-10-3 cEt gapmers targeting SEQ ID NO.: 1, and 2.
As for “1075539 (k[5mC]*kT*kT*dA*dA*dG*dG*dG*dA*dT*dG*dG*dA*kA*k[5mC]*kA; antisense) [compound 1075539]”, the “YAP1 (% UTC)” value came to 79 % UTC.

The series is the same for the next values; noted with them: Yap1 mRNA as percent of untreated control; A-431 cells; 3-10-3 cEt gapmers targeting SEQ ID NO.: 1, and 2; Table 30.
For the substance “1076176 (k[5mC]*kT*k[5mC]*d[5mC]*dA*dA*dT*dA*dG*dG*dT*dA*dA*k[5mC]*kA*kG; antisense) [compound 1076176]”, the “YAP1 (% UTC)” value turned out to be 43 % UTC.

Staying with this series, now noted: Yap1 mRNA as percent of untreated control; A-431 cells; 3-10-3 cEt gapmers targeting SEQ ID NO.: 1, and 2; Table 31.
Take “1076497 (kA*kA*kA*dG*dA*dA*dT*dA*d[5mC]*d[5mC]*dA*dA*d[5mC]*k[5mC]*kT*kG; antisense) [compound 1076497]”: the “YAP1 (% UTC)” value stood at 72 % UTC.
On the same count and under the same terms, then “1075217 (kT*kT*kA*dT*dT*dT*dT*dA*d[5mC]*dA*d[5mC]*dG*dA*kA*k[5mC]*kT; antisense) [compound 1075217]”, with 71 % UTC.
Same read-out and setting: then “1076561 (kG*kT*kA*dT*dA*d[5mC]*d[5mC]*dA*dA*dG*d[5mC]*dT*dA*k[5mC]*kT*k[5mC]; antisense) [compound 1076561]”, with 22 % UTC.
